Test results from patent US10201558B2, “Compositions of selenoorganic compounds and methods of use thereof” (Alltech, Inc., priority 2014, dated 2019).
Entries after “also recorded” stand apart in the source; their conditions may differ.

What was measured:
[1] = system: gene transcripts in the brains of APP/PS1 mice; test: Microarray analysis of RNA expression in the brains of APP/PS1 mice; assay type: in vivo, mouse
[2] = system: phosphorylated Foxo4 (threonine 28); test: Western blot of phosphorylated Foxo4 in APP/PS1 mouse brains; assay type: in vivo; settings: APP/PS1 mouse brain, Compound C diet vs control diet
Protocol: Male APPΔNLh/ΔNLh×PS1P246 L/246 L knock-in model mice of Alzheimer's disease (abbreviated APP/PS1) were genotyped using standard primers for human APP (Amyloid Precursor Protein) and human PS1 (PSEN1).
At 12 months of age, the mice were euthanized and the brains quickly removed, the cerebellum isolated and the hemispheres snap-frozen in liquid nitrogen and then stored at −80° C. for further immunohistochemistry (IHC), protein and RNA analysis. All procedures conducted on these animal studies were pre-approved by the University of Kentucky IACUC committee.
Frozen hemispheres of control- and Compound C-treated APP/PS1 mice were weighed and homogenized in PBS buffer, and then subsequently extracted with RIPA buffer (Sigma) containing complete proteinase and phosphatase inhibitors (Fisher Scientific). Protein levels in the samples were determined by micro-BCA protein analysis according to the manufacturer's protocol. […] Positive signals on the membrane blots were detected using Amersham's enhanced chemiluminescence Western Blotting Prime Detection reagents (GE healthcare Lifescience, Pittsburgh, Pa.). Images of these luminescence signals on the membrane blots were captured using the LI-COR Odyssey Fc Image system (Lincoln, Nebr.). […]

phosphorylated-p38 = test: Western blot of phosphorylated-p38 in APP/PS1 mouse brains; assay type: in vivo; settings: APP/PS1 mice, Compound C diet vs control diet
Protocol: Male APPΔNLh/ΔNLh×PS1P246 L/246 L knock-in model mice of Alzheimer's disease (abbreviated APP/PS1) were genotyped using standard primers for human APP (Amyloid Precursor Protein) and human PS1 (PSEN1). These APP/PS1 mice starting at the age of 6 months, were fed either a control diet containing normal levels of selenium (0.3 ppm from plant and inorganic selenium salt sources) or an experimental diet containing Compound C (the control diet to which was added 1 ppm Se from Compound C) for 6 months. […]
Frozen hemispheres of control- and Compound C-treated APP/PS1 mice were weighed and homogenized in PBS buffer, and then subsequently extracted with RIPA buffer (Sigma) containing complete proteinase and phosphatase inhibitors (Fisher Scientific). Protein levels in the samples were determined by micro-BCA protein analysis according to the manufacturer's protocol. […] Positive signals on the membrane blots were detected using Amersham's enhanced chemiluminescence Western Blotting Prime Detection reagents (GE healthcare Lifescience, Pittsburgh, Pa.). Images of these luminescence signals on the membrane blots were captured using the LI-COR Odyssey Fc Image system (Lincoln, Nebr.). Protein band densities in Western blots were determined using NIH Image J software, and then normalized by Actb levels in each samples to obtain the protein levels.

MAPK14 = test: QRT-PCR of MAPK14 mRNA in control and FOXO4 KD IMR-32 cells; assay type: cell-based, human; settings: 24 hours
Protocol: IMR-32 cells were cultured on 12-well plates for 24 hours and then incubated with FOXO4 siRNA lentiviruses (SC-29650V, Santa Cruz) or control siRNA lentiviruses (sc-108080, Santa Cruz) in the presence of Polybrene (5 μg/ml, Santa Cruz) for 24 hours according to the manufacturer's protocol. These lentiviral siRNA-transfected cells were amplified in normal media for 3 days and then incubated with puromycin for 9-14 days to obtain the stable Control KD (stably transfected with the control siRNAs) and FOXO4KD (stably transfected with Foxo4 siRNAs) cells. These control and Foxo4 KD cells were subjected to cell survival, mitochondrial potential and RNA analysis.
Human IMR-32 cells were seeded on gelatinized 6-well (6.5×10^5 cells/well) or 24-well (1.3×10^5 cells/well) plates. Cells were treated with control (0 ppb) or various compounds for 6 hours or 24 hours. Total RNA from these cells was isolated using Trizol (Invitrogen) according to the manufacturer's protocol, and then incubated with DNase I to remove any potential contaminated genomic DNA. Then RNA samples were subjected to real-time PCR analysis using the Applied-Bioscience's RT kit and predesigned Taqman probes (Invitrogen), as described previously (Lan et al EMBO J 2003). The mRNA levels of UCP1, UCP2, UCP3, SLC25A27 (UCP4), SLC25A14 (UCP5), PSEN1, Nicastrin, GSK3B, MAPK11-14, PPARG, APOE, RCAN1, RCAN1.1, G6PC, INSR, IGF1R and FOXO4 were measured. Three to six samples were analyzed in each treatment group. Data were normalized by Actin B (ACTB) or Glyceraldehyde Phosphate Dehydrogenase (GAPDH) mRNA levels in each sample and are presented as mean±SEM of 3-6 samples.
Normal control cells and FOXO4KD cells were incubated with two doses of Compound C for 24 hours, and subjected to QRT-PCR analysis of the MAPK11-14 genes. The relative mRNA expression of all four MAPK genes in normal control IMR-32 cells was assessed. […] Data in Compound C-treated control and FOXO4 KD cells were normalized by their levels in control and FOXO4KD cells, respectively. Mean±SEM of indicated number of samples in the bar graphs. […]

[3] = APP/PS1 mouse brain, Compound C diet vs control diet

## C[Se]C[C@H]1O[C@@H](n2cnc3c(N)ncnc32)C(O)C1O (stereo in doubt) [Compound C, 5′-deoxy-5′-methylselenoadenosine]
[1]; APP/PS1 mice, fold change of more than 1.2
  number of genes with regulated expression in the brains: 2217 genes
[1]; [3]
  Fold Change, Akap5: 1.589 fold
  Fold Change, Apbb1: −1.293 fold
  Fold Change, App: −1.22 fold
  Fold Change, Bcl2: 1.246 fold
  Fold Change, Camk2a: −1.67 fold
  Fold Change, Cnr1: −1.492 fold
  Fold Change, Ddx5: 1.26 fold
  Fold Change, Dlx5: 2.09 fold
  Fold Change, Drd1: 4.22 fold
  Fold Change, Foxp2: 2.52 fold
  Fold Change, Gabra1: −1.407 fold
  Fold Change, Gabra2: 1.275 fold
  Fold Change, Gabrg1: 1.375 fold
  Fold Change, Gad2: 1.69 fold
  Fold Change, Gpr6: 9.07 fold
  Fold Change, Gpr88: 6.47 fold
  Fold Change, Grm4: 1.418 fold
  Fold Change, Htr2c: 1.797 fold
  Fold Change, Isl1: 11.32 fold
  Fold Change, Mapk8: −1.289 fold
  Fold Change, Mapt: −1.21 fold
  Fold Change, Meis2: 2.04 fold
  Fold Change, Nrxn1: −1.444 fold
  Fold Change, Pak1: −1.201 fold
  Fold Change, Pde10a: 2.91 fold
  Fold Change, Penk: 4.068 fold
  Fold Change, Prdx1: 1.272 fold
  Fold Change, Prkacb: −1.396 fold
  Fold Change, Prkar2b: 1.439 fold
  Fold Change, Prkcd: 1.813 fold
  Fold Change, Prnp: −1.256 fold
  Fold Change, Rarb: 4.03 fold
  Fold Change, Rims1: −1.459 fold
  Fold Change, Scarb1: 1.56 fold
  Fold Change, Scp2: 1.204 fold
  Fold Change, Sez6: 1.33 fold
  Fold Change, Sod1: 1.274 fold
  Fold Change, Sorl1: −1.41 fold
  Fold Change, Sox2: 1.274 fold
  Fold Change, Tac1: 3.36 fold
  Fold Change, ZIC1: 3.25 fold
  Fold Change, Zic3: 2.28 fold
  Fold Change, Zic4: 1.75 fold
  Fold Change, Zic5: 1.53 fold
  Foxo 1, 3 and 4 mRNA levels: no significant change
[2]
  phosphorylated Foxo4 at threonine 28 (pFoxo4) protein: inhibition; also recorded: less abundant; also recorded: significantly decreased
phosphorylated-p38
  phosphorylated-p38 protein levels in the brains: reduced; also recorded: decreased
MAPK14; FOXO4KD cells, 75 ppb and 150 ppb
  MAPK14 mRNA levels: none of the mRNA levels of the four MAPK genes in FOXO4KD cells were significantly altered
MAPK14; control KD cells, 75 ppb
  MAPK14 mRNA levels: trend towards decreased
MAPK14; control KD cells, 150 ppb
  MAPK14 mRNA levels: significantly decreased
